Measurements published in patent publication US10538535B2, “Antitumoral compounds” (priority 2017, dated 2020).
Like-named read-outs stand apart in the source and are kept apart here.

Tests used:
[1] = MTD (Maximum Tolerated Dose) determination, single iv administration; assay type: in vivo; settings: female, mouse, in vivo; mice; iv/SD
Procedure, shortened: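 Tolerability endpoints were systemic toxicity signs, body-weight change and mortality over 14 days after dosing. Dosing was intravenous at 10 mL/kg in female CD-1 or nude mice, as a single administration for MTD or once weekly ×3 for MTMD, with blank formulation as control.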

MDA-MB-231 tumors = settings: iv, 0.5 mg/kg
Procedure: (§1) Female athymic nu/nu mice (Harlan Laboratories Models, S. L. Barcelona, Spain or Envigo, Spain) were utilized for all experiments. Animal were housed in individually ventilated cages Sealsafe® Plus, Techniplast S.P.A.), up to ten per cage on a 12-hour light-dark cycle at 21-23° C. and 40-60% humidity. […] Animals were acclimated for at least 5 days prior to tumor implantation with a tumor cell suspension.
MDA-MB-231 cells were maintained in vitro at 37° C. with 5% CO2 in Dulbecco's Modified Eagle's Medium (Sigma-Aldrich, Co). Culture cells were passaged every 3 to 5 days upon reaching confluence.
(§2) Treatment tolerability was assessed by monitoring body weight evolution, clinical signs of systemic toxicity, as well as evidences of local damage in the injection site.
(§3) In xenograft studies with other cell lines: • Tumor volume was calculated using the equation (a·b^2)/2, where a: length (longest diameter) and b: width (shortest diameter) were measured in mm by using digital caliper (Fowler Sylvac, S235PAT).
(§4) Treatments producing >20% lethality and/or 20% net body weight loss were considered toxic.

H82 tumors = experiment: In vivo xenograft, human lung (SCLC) H82; settings: iv weekly, 32 and ET-736 0.5 mg/Kg
Procedure: Female athymic nu/nu mice (Harlan Laboratories Models, S. L. Barcelona, Spain or Envigo, Spain) were utilized for all experiments. Animal were housed in individually ventilated cages Sealsafe® Plus, Techniplast S.P.A.), up to ten per cage on a 12-hour light-dark cycle at 21-23° C. and 40-60% humidity. Mice were allowed free access to irradiated standard rodent diet (Tecklad 2914C) and sterilized water. Animals were acclimated for at least 5 days prior to tumor implantation with a tumor cell suspension.
H82 cells were grown as a suspension and maintained by addition of fresh medium, as the cell density increases, every 2 to 3 days. Every week, culture was reestablished by centrifugation of the suspension with subsequent resuspension in fresh medium at a concentration of 1×10^5 cell/ml. Animals were subcutaneously implanted (on the right flank using 26 G needle and a 1 cc syringe) at 4-6 weeks of age with 5×10^6 H82 cells, suspended in 0.05 mL of a solution consisting of 50% Matrigel® (Corning Incorporated Life Sciences) and 50% medium without serum or antibiotics.
as §2, §3, §4
Tables and figures summarize the data obtained from complete experimental groups, i.e. those groups keeping the initial number of animals, n=8-10.

HT1080 tumors = experiment: In vivo xenograft, human fibrosarcoma HT1080; settings: iv weekly, 32 and ET-736 0.5 mg/Kg
Procedure: as §1
HT1080 cells were maintained in vitro at 37° C. with 5% CO2 in Minimum Essential Medium Eagle (MEME) (Sigma-Aldrich, Co). Each animal was orthotopically implanted into gastroecnemius muscle by an intramuscular injection using a 26 G needle and a 1 cc syringe at 4-6 weeks of age, with 10×10^6 HT1080 cells, suspended in serum free medium, without antibiotics.
as §2
In xenograft studies with HT1080 cell line: • Total diameter (tumor+leg) measurements were determined by using digital caliper (Fowler Sylvac, S235PAT).
as §4

P388 lymphoma = settings: cited from earlier work
B16 melanoma = settings: cited from earlier work
Lewis lung carcinoma = settings: cited from earlier work

Structure (SMILES) | Median Tumor Volume (MDA-MB-231 tumors; 0 h) [mm^3] | Median Tumor Volume (MDA-MB-231 tumors; 48 h) [mm^3] | Median Tumor Volume (MDA-MB-231 tumors; 120 h) [mm^3] | Median Tumor Volume (MDA-MB-231 tumors; 168 h) [mm^3] | Median Tumor Volume (MDA-MB-231 tumors; 336 h) [mm^3] | Median Tumor Volume (MDA-MB-231 tumors; 384 h) [mm^3] | Median Tumor Volume (MDA-MB-231 tumors; 456 h) [mm^3] | Median Tumor Volume (MDA-MB-231 tumors; 504 h) [mm^3] | Median Tumor Volume (MDA-MB-231 tumors; 552 h) [mm^3] | Median Tumor Volume (MDA-MB-231 tumors; 672 h) [mm^3] | Median Tumor Volume (MDA-MB-231 tumors; 720 h) [mm^3] | Median Tumor Volume (H82 tumors; Table 64, Day 0) [mm^3] | Median Tumor Volume (H82 tumors; Table 64, Day 2) [mm^3] | Median Tumor Volume (H82 tumors; Table 64, Day 5) [mm^3] | Median Tumor Volume (H82 tumors; Table 64, Day 7) [mm^3] | Median Tumor Volume (H82 tumors; Table 64, Day 9) [mm^3] | Median Tumor Volume (H82 tumors; Table 64, Day 12) [mm^3] | Median Tumor Volume (H82 tumors; Table 64, Day 14) [mm^3] | Total diameter (tumor + leg) (HT1080 tumors; Table 60, Day 2) [mm] | Total diameter (tumor + leg) (HT1080 tumors; Table 60, Day 5) [mm] | also measured
COc1c(C)cc2c(c1O)[C@@H]1[C@@H]3[C@@H]4SC[C@]5(NCCc6c5oc5ccccc65)C(=O)OC[C@@H](c5c6c(c(C)c(OC(C)=O)c54)OCO6)N3[C@@H](O)[C@H](C2)N1C [Compound 32] | 150.2 | 233.6 | 310.6 | 386.1 | 560.3 | 649.5 | 853.0 | 1017.5 | 1263.2 | 1726.6 | 1892.6 | 171.6 | 309.4 | 485.0 | 708.4 | 972.6 | 1101.6 | 1339.6 | 8.9 | 8.2 | MTD at 14 days [1]: 0.5 mg/kg; Median Tumor Volume (H82 tumors; Table 64, Day 16): 1430.3 mm^3; Median Tumor Volume (H82 tumors; Table 64, Day 19): 1885.7 mm^3; Total diameter (tumor + leg) (HT1080 tumors; Table 60, Day 7): 8.8 mm; Total diameter (tumor + leg) (HT1080 tumors; Table 60, Day 9): 10.0 mm; Total diameter (tumor + leg) (HT1080 tumors; Table 60, Day 12): 8.8 mm; Total diameter (tumor + leg) (HT1080 tumors; Table 60, Day 14): 10.8 mm; Total diameter (tumor + leg) (HT1080 tumors; Table 60, Day 16): 11.8 mm; Total diameter (tumor + leg) (HT1080 tumors; Table 60, Day 19): 12.0 mm; Total diameter (tumor + leg) (HT1080 tumors; Table 60, Day 21): 14.0 mm; Total diameter (tumor + leg) (HT1080 tumors; Table 60, Day 23): 13.8 mm; Total diameter (tumor + leg) (HT1080 tumors; Table 60, Day 27): 13.6 mm; Total diameter (tumor + leg) (HT1080 tumors; Table 60, Day 30): 15.5 mm; Total diameter (tumor + leg) (HT1080 tumors; Table 60, Day 33): 18.0 mm
COc1c(C)cc2c(c1O)[C@@H]1[C@@H]3[C@@H]4SC[C@]5(NCCc6c5[nH]c5ccccc65)C(=O)OC[C@@H](c5c6c(c(C)c(OC(C)=O)c54)OCO6)N3[C@@H](O)[C@H](C2)N1C [ET-736, Ecteinascidin 736] | 150.0 | 237.7 | 302.1 | 364.9 | 398.3 | 447.2 | 485.0 | 536.3 | 669.8 | 1046.1 | 1315.9 | 170.0 | 334.4 | 539.4 | 836.4 | 1013.1 | 1290.9 | 1648.0 | 8.3 | 7.1 | Median Tumor Volume (MDA-MB-231 tumors; 840 h): 2007.7 mm^3; protection of mice in vivo (P388 lymphoma): protects mice in vivo at very low concentrations; protection of mice in vivo (B16 melanoma): protects mice in vivo at very low concentrations; protection of mice in vivo (Lewis lung carcinoma): protects mice in vivo at very low concentrations; Total diameter (tumor + leg) (HT1080 tumors; Table 60, Day 7): 7.6 mm; Total diameter (tumor + leg) (HT1080 tumors; Table 60, Day 9): 7.4 mm; Total diameter (tumor + leg) (HT1080 tumors; Table 60, Day 12): 7.0 mm; Total diameter (tumor + leg) (HT1080 tumors; Table 60, Day 14): 7.1 mm; Total diameter (tumor + leg) (HT1080 tumors; Table 60, Day 16): 7.4 mm; Total diameter (tumor + leg) (HT1080 tumors; Table 60, Day 19): 8.4 mm; Total diameter (tumor + leg) (HT1080 tumors; Table 60, Day 21): 8.6 mm; Total diameter (tumor + leg) (HT1080 tumors; Table 60, Day 23): 10.0 mm; Total diameter (tumor + leg) (HT1080 tumors; Table 60, Day 27): 10.9 mm; Total diameter (tumor + leg) (HT1080 tumors; Table 60, Day 30): 13.2 mm; Total diameter (tumor + leg) (HT1080 tumors; Table 60, Day 33): 14.3 mm; Total diameter (tumor + leg) (HT1080 tumors; Table 60, Day 35): 15.2 mm; Total diameter (tumor + leg) (HT1080 tumors; Table 60, Day 37): 15.8 mm; Total diameter (tumor + leg) (HT1080 tumors; Table 60, Day 40): 16.6 mm; Total diameter (tumor + leg) (HT1080 tumors; Table 60, Day 42): 18.0 mm
